# Where a name gives a salt, the structure may show the parent alone.
# Tests used:
# Experiment in all cases: normalized area under the dose-response curve (viability relative to DMSO control) (fraction); higher = less sensitive (more viable cells)
# Details in all cases: exposure time not given
# [1] = tested on: XG2 (cancer type: MM)
# Description: (§1)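 25 myeloma and 15 non-Hodgkin lymphoma cell lines were exposed to each of 76 drugs as 7-point log dilutions (0.01 nM–10 µM) in duplicate. Viability was read with CellTiter-Glo and normalised to DMSO (0.1%) and staurosporine (10 µM) plate controls. Normalised AUC was calculated by the trapezoidal method relative to the negative control.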
# [2] = tested on: L363 (cancer type: MM)
# Description: as §1
# [3] = tested on: OCI-MY7 (cancer type: MM)
# Description: as §1
# [4] = tested on: AMO1 (cancer type: MM)
# Description: as §1
# [5] = tested on: SKMM2 (cancer type: MM)
# Description: as §1
# [6] = tested on: RPMI 8226 (cancer type: MM)
# Description: as §1
# [7] = tested on: KMS34 (cancer type: MM)
# Description: as §1
# [8] = tested on: KMS28PE (cancer type: MM)
# Description: as §1
# [9] = tested on: OCI-LY3 (cancer type: DLBCL)
# Description: as §1
# [10] = tested on: OPM2 (cancer type: MM)
# Description: as §1
# [11] = tested on: SU-DHL1 (cancer type: TCL)
# Description: as §1
# [12] = tested on: MM1.S (cancer type: MM)
# Description: as §1
# [13] = tested on: EJM (cancer type: MM)
# Description: as §1
# [14] = tested on: KMS11 (cancer type: MM)
# Description: as §1
# [15] = tested on: LP1 (cancer type: MM)
# Description: as §1
# [16] = tested on: SU-DHL6 (cancer type: DLBCL)
# Description: as §1
# [17] = tested on: Mino (cancer type: Mantle)
# Description: as §1
# [18] = tested on: KMS18 (cancer type: MM)
# Description: as §1
# [19] = tested on: JJN3 (cancer type: MM)
# Description: as §1
# [20] = tested on: My-La (cancer type: TCL)
# Description: as §1
# [21] = tested on: FR4 (cancer type: MM)
# Description: as §1
# [22] = tested on: NCI-H929 (cancer type: MM)
# Description: as §1
# [23] = tested on: MM1.R (cancer type: MM)
# Description: as §1
# [24] = tested on: Granta-519 (cancer type: Mantle)
# Description: as §1
# [25] = tested on: KMS28BM (cancer type: MM)
# Description: as §1
# [26] = tested on: OCI-MY5/CRBN (cancer type: MM)
# Description: as §1
# [27] = tested on: OCI-MY5/Vec (cancer type: MM)
# Description: as §1
# [28] = tested on: JVM2 (cancer type: Mantle)
# Description: as §1
# [29] = tested on: KMS26 (cancer type: MM)
# Description: as §1
# [30] = tested on: Se-Ax (cancer type: TCL)
# Description: as §1
# [31] = tested on: U266 (cancer type: MM)
# Description: as §1
# [32] = tested on: SR-786 (cancer type: TCL)
# Description: as §1
# [33] = tested on: JeKo-1 (cancer type: Mantle)
# Description: as §1
# [34] = tested on: OCI-LY1 (cancer type: DLBCL)
# Description: as §1
# [35] = tested on: HuT 78 (cancer type: TCL)
# Description: as §1
# [36] = tested on: KMS12PE (cancer type: MM)
# Description: as §1
# [37] = tested on: SU-DHL2 (cancer type: DLBCL)
# Description: as §1
# [38] = tested on: Karpas-299 (cancer type: TCL)
# Description: as §1
# [39] = tested on: OCI-MY5 (cancer type: MM)
# Description: as §1
# [40] = tested on: OCI-LY19 (cancer type: DLBCL)
# Description: as §1
SMILES,normalized area under the dose-response curve [1],normalized area under the dose-response curve [2],normalized area under the dose-response curve [3],normalized area under the dose-response curve [4],normalized area under the dose-response curve [5],normalized area under the dose-response curve [6],normalized area under the dose-response curve [7],normalized area under the dose-response curve [8],normalized area under the dose-response curve [9],normalized area under the dose-response curve [10],normalized area under the dose-response curve [11],normalized area under the dose-response curve [12],normalized area under the dose-response curve [13],normalized area under the dose-response curve [14],normalized area under the dose-response curve [15],normalized area under the dose-response curve [16],normalized area under the dose-response curve [17],normalized area under the dose-response curve [18],normalized area under the dose-response curve [19],normalized area under the dose-response curve [20],normalized area under the dose-response curve [21],normalized area under the dose-response curve [22],normalized area under the dose-response curve [23],normalized area under the dose-response curve [24],normalized area under the dose-response curve [25],normalized area under the dose-response curve [26],normalized area under the dose-response curve [27],normalized area under the dose-response curve [28],normalized area under the dose-response curve [29],normalized area under the dose-response curve [30],normalized area under the dose-response curve [31],normalized area under the dose-response curve [32],normalized area under the dose-response curve [33],normalized area under the dose-response curve [34],normalized area under the dose-response curve [35],normalized area under the dose-response curve [36],normalized area under the dose-response curve [37],normalized area under the dose-response curve [38],normalized area under the dose-response curve [39],normalized area under the dose-response curve [40]
CN(C)C/C=C/C(=O)Nc1cc2c(Nc3ccc(F)c(Cl)c3)ncnc2cc1O[C@H]1CCOC1 [Afatinib],0.496,0.521,0.62,0.562,0.642,0.467,0.461,0.529,0.819,0.692,0.558,0.5,0.66,0.53,0.637,0.811,0.643,0.822,0.57,0.74,0.685,0.63,0.49,0.69,0.682,0.548,0.477,0.497,0.848,0.604,0.801,0.709,0.531,0.796,0.496,0.53,0.758,0.636,0.372,0.739
Cn1ncc(Cl)c1-c1cc(C(=O)N[C@H](CN)Cc2cccc(F)c2)sc1Cl [Afuresertib],0.436,0.375,0.7,0.414,0.49,0.331,0.211,0.282,0.851,0.369,0.48,0.26,0.486,0.439,0.384,0.816,0.813,0.293,0.55,0.784,0.591,0.33,0.2,0.821,0.363,0.742,0.637,0.652,0.499,0.416,0.525,0.713,0.808,0.657,0.758,0.49,0.913,0.765,0.398,0.739
COc1cc(Nc2ncc3c(n2)-c2ccc(Cl)cc2C(c2c(F)cccc2OC)=NC3)ccc1C(=O)O [Alisertib],0.69,0.872,0.92,0.7,0.967,0.927,0.684,0.918,0.878,0.957,0.761,0.85,0.889,0.772,0.851,0.946,0.622,0.833,0.919,0.851,0.916,0.94,0.85,0.709,0.913,0.85,0.809,0.706,0.887,0.73,0.859,0.802,0.716,0.794,0.826,0.94,0.964,0.816,0.881,0.853
CC(=O)OC[C@H]1O[C@@H]([S-])[C@H](OC(C)=O)[C@@H](OC(C)=O)[C@@H]1OC(C)=O.CCP(CC)CC.[Au+] [Auranofin],–,–,0.07,–,–,–,–,–,0.553,–,0.139,0.09,–,–,–,0.553,–,–,–,–,–,0.08,0.05,–,–,0.0579,0.0417,0.157,–,0.247,–,–,–,0.372,0.239,0.33,0.611,–,–,0.344
Nc1ncn([C@@H]2O[C@H](CO)[C@@H](O)[C@H]2O)c(=O)n1 [Azacitidine],0.612,0.488,0.6,0.496,0.767,0.665,0.64,0.678,0.707,0.535,0.453,0.6,0.635,0.545,0.766,0.65,0.807,0.736,0.645,0.87,0.427,0.4,0.65,0.778,0.774,0.756,0.702,0.552,0.757,0.637,0.679,0.74,0.72,0.508,0.419,0.56,0.673,0.624,0.564,0.716
O=C(/C=C/c1cccc(S(=O)(=O)Nc2ccccc2)c1)NO [Belinostat],0.473,0.473,0.44,0.301,0.712,0.564,0.274,0.384,0.343,0.674,0.218,0.21,0.247,0.445,0.628,0.582,0.249,0.553,0.53,0.506,0.428,0.1,0.36,0.531,0.416,0.262,0.25,0.385,0.366,0.215,0.394,0.215,0.229,0.223,0.178,0.4,0.4,0.0712,0.201,0.38
Cn1c(CCCC(=O)O)nc2cc(N(CCCl)CCCl)ccc21 [Bendamustine hydrochloride],0.875,0.84,0.74,0.849,0.955,0.879,0.755,0.847,0.784,0.842,0.794,0.68,0.815,0.849,0.946,0.911,0.86,0.832,0.938,0.862,0.955,0.75,0.67,0.885,0.869,0.932,0.921,0.684,0.677,0.719,0.92,0.74,0.87,0.832,0.779,0.74,0.795,0.831,0.835,0.834
O=C1CC[C@H](N2Cc3c(OCc4ccc(CN5CCOCC5)cc4)cccc3C2=O)C(=O)N1 [Iberdomide],–,–,0.94,–,–,–,–,–,0.983,–,0.996,0.78,–,–,–,0.887,–,–,–,–,–,0.86,0.91,–,–,0.913,0.947,0.917,–,0.953,–,–,–,0.968,0.913,0.93,0.921,–,–,0.809
CC(C)C[C@H](NC(=O)CNC(=O)c1cc(Cl)ccc1Cl)B(O)O [Ixazomib],0.0819,–,0.12,–,–,–,0.306,–,0.285,–,0.186,0.09,–,–,0.344,0.855,0.14,–,–,0.355,–,0.1,0.05,0.129,–,0.0319,0.027,0.114,0.157,0.146,–,0.355,0.104,0.362,0.156,0.45,0.453,0.403,–,0.303
Cc1[nH]c(/C=C2\C(=O)Nc3ccc(F)cc32)c(C)c1C(=O)NCCN1CCCC1 [Toceranib],0.723,–,0.86,–,–,–,0.667,–,0.902,–,0.561,0.82,–,–,0.796,0.894,0.898,–,–,0.993,–,0.88,0.83,0.898,–,0.884,0.967,0.702,0.906,0.728,–,0.818,0.831,1.06,0.756,0.79,0.959,0.757,–,0.894

# — the supplement of paper PMC7214452
